Measured values from ChEMBL document CHEMBL5046289, “Targeting the S2 Subsite Enables the Structure-Based Discovery of Novel Highly Selective Factor XIa Inhibitors” (J Med Chem, 2022).

Key:
Coagulation factor XI [1] = molecular target: T1, Coagulation factor XI (Homo sapiens, UniProt P03951); conditions: dose 50.0 nM, time 1.0 hrs
Homo sapiens = species: Homo sapiens; experiment: Selectivity index, ratio of IC50 for plasma kallikrein (unknown origin) to IC50 for coagulation factor XIa (unknown origin)
Plasma kallikrein = Plasma kallikrein (Homo sapiens, UniProt P03952); experiment: Inhibition of plasma kallikrein (unknown origin) assessed as chromogenic substrate hydrolysis using CS-31(02) as substrate incubated for 1 hr by spectrophotometer based microplate reader method
Coagulation factor XI [2] = molecular target: T1, Coagulation factor XI; experiment: Inhibition of coagulation factor XIa (unknown origin) assessed as chromogenic substrate hydrolysis using CS-21(66) as substrate incubated for 1 hr by spectrophotometer based microplate reader method
[3] = Toxicity in C57BL/6J mouse assessed as bleeding risk at 20 mg/kg, iv measured after 15 mins by tail transection assay; type: organism-based; conditions: in vivo, 0.25 h
[4] = Toxicity in C57BL/6J mouse assessed as bleeding risk at 60 to 100 mg/kg, iv measured after 15 mins by tail transection assay; type: organism-based; conditions: in vivo, 0.25 h, dose 60-100 mg/kg
[5] = Toxicity in C57BL/6J mouse assessed as bleeding risk at 35 mg/kg, iv measured after 15 mins by tail transection assay; type: organism-based; conditions: in vivo, 0.25 h

Chain of Plasma kallikrein (P03952 20-390 limits assumed): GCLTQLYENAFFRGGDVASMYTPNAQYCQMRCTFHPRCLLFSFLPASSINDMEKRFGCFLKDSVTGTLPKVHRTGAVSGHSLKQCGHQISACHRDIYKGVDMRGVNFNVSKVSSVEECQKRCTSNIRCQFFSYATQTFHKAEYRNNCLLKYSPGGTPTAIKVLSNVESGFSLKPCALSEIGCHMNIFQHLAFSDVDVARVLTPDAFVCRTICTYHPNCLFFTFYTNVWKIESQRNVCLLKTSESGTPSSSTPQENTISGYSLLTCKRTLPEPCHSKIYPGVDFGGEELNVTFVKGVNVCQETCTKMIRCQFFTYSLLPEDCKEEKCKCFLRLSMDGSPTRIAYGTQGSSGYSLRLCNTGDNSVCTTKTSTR
Chain of Plasma kallikrein (P03952 391-638 limits assumed): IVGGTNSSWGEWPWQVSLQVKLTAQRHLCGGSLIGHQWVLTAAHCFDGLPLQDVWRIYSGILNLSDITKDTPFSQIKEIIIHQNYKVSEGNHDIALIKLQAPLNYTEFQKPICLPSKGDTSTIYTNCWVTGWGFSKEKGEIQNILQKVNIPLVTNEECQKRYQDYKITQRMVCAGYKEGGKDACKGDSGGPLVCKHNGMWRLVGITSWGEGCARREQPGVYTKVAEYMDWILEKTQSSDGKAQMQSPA
T1 sequence (P03951 19-387 limits assumed): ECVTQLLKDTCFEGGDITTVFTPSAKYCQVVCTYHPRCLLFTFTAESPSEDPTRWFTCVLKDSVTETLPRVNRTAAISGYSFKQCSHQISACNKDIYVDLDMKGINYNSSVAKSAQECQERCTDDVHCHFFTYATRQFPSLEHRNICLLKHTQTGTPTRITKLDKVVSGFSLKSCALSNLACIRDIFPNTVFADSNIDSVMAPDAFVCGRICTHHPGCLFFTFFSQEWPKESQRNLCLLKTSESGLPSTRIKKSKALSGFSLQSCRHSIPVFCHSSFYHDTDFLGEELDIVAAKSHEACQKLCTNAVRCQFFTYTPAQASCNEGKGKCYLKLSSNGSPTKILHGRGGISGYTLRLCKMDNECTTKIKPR
T1 sequence (P03951 388-625 limits assumed): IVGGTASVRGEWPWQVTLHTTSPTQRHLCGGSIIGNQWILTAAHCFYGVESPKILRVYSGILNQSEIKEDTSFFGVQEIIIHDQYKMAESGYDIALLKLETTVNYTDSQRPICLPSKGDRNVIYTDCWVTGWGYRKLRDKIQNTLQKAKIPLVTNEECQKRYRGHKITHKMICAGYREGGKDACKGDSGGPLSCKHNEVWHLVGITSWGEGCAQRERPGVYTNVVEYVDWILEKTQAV

In the case of `O=C(/C=C/c1cc(Cl)ccc1-n1cnnn1)N[C@@H](CCC(=O)N1CCCCC1)C(=O)Nc1ccc(C(=O)O)cc1`, the inhibition (Coagulation factor XI [1]) is reported as 16.1%.

`CCc1ccc(CN(CC(=O)Nc2ccc(C(=O)O)cc2)C(=O)/C=C/c2cc(Cl)ccc2-n2cnnn2)cc1` gave an inhibition (Coagulation factor XI [1]) of 3.6%.

Molecule `O=C(/C=C/c1cc(Cl)ccc1-n1cnnn1)NCC(=O)Nc1ccc(C(=O)O)cc1` has an inhibition (Coagulation factor XI [1]) of under 5%.

`O=C(/C=C/c1cc(Cl)ccc1-n1cnnn1)N[C@@H](CC(=O)N1CCN(CC2CC2)CC1)C(=O)Nc1ccc(C(=O)O)cc1` gave a Ratio IC50 (Homo sapiens) of 77, an IC50 (Plasma kallikrein) of 0.6 µM and an IC50 (Coagulation factor XI [2]) of 0.0078 µM. The inhibition (Coagulation factor XI [1]) was 65.7%.

Work on `O=C(CN(Cc1ccccc1)C(=O)/C=C/c1cccc(Cl)c1)Nc1ccc(C(=O)O)cc1` yielded an inhibition (Coagulation factor XI [1]) of 7.9%.

Work on `CC1CCN(C(=O)C[C@H](NC(=O)/C=C/c2cc(Cl)ccc2-n2cnnn2)C(=O)Nc2ccc(C(=O)O)cc2)CC1` yielded an inhibition (Coagulation factor XI [1]) of 3.6%.

With `CC(C)N1CCN(C(=O)C[C@H](NC(=O)/C=C/c2cc(Cl)ccc2-n2cnnn2)C(=O)Nc2ccc(C(=O)O)cc2)CC1` the Ratio IC50 (Homo sapiens) was 16, the IC50 (Plasma kallikrein) was 0.49 µM and the IC50 (Coagulation factor XI [2]) was 0.0312 µM. The inhibition (Coagulation factor XI [1]) was 44%.

`CCCCN1CCN(C(=O)CC[C@H](NC(=O)/C=C/c2cc(Cl)ccc2-n2cnnn2)C(=O)Nc2ccc(C(=O)O)cc2)CC1` gave a Ratio IC50 (Homo sapiens) of 30, an IC50 (Plasma kallikrein) of 2.7 µM and an inhibition (Coagulation factor XI [1]) of 39.3%.

`O=C(/C=C/c1cc(Cl)ccc1-n1cnnn1)N[C@@H](CC(=O)N1CCCN(CC2CC2)CC1)C(=O)Nc1ccc(C(=O)O)cc1` gave a Ratio IC50 (Homo sapiens) of 21, an IC50 (Plasma kallikrein) of 1.4 µM and an IC50 (Coagulation factor XI [2]) of 0.0671 µM. It also gave an inhibition (Coagulation factor XI [1]) of 34.7%.

`O=C(CN(Cc1ccc(F)cc1)C(=O)/C=C/c1cc(Cl)ccc1-n1cnnn1)Nc1ccc(C(=O)O)cc1` gave an inhibition (Coagulation factor XI [1]) of 7.2%.

With `O=C(/C=C/c1cc(Cl)ccc1-n1cnnn1)N[C@@H](CC(=O)N1CCN(CCO)CC1)C(=O)Nc1ccc(C(=O)O)cc1` the Ratio IC50 (Homo sapiens) was 295, the IC50 (Plasma kallikrein) was 3.4 µM and the IC50 (Coagulation factor XI [2]) was 0.0115 µM. The inhibition (Coagulation factor XI [1]) was 60.2%.

`CCN1CCN(C(=O)CC[C@H](NC(=O)/C=C/c2cc(Cl)ccc2-n2cnnn2)C(=O)Nc2ccc(C(=O)O)cc2)CC1` showed an IC50 (Coagulation factor XI [2]) of 0.0894 µM and an inhibition (Coagulation factor XI [1]) of 17.2%.

Work on `CC(=O)N1CCN(C(=O)C[C@H](NC(=O)/C=C/c2cc(Cl)ccc2-n2cnnn2)C(=O)Nc2ccc(C(=O)O)cc2)CC1` yielded a Ratio IC50 (Homo sapiens) of 226, an IC50 (Plasma kallikrein) of 17.3 µM and an IC50 (Coagulation factor XI [2]) of 0.0765 µM. For the same molecule, the inhibition (Coagulation factor XI [1]) was 23.2%.

With `CN1CCCN(C(=O)CC[C@H](NC(=O)/C=C/c2cc(Cl)ccc2-n2cnnn2)C(=O)Nc2ccc(C(=O)O)cc2)CC1` the inhibition (Coagulation factor XI [1]) was 30.1%.

`O=C(/C=C/c1cc(Cl)ccc1-n1cnnn1)N[C@@H](CCC(=O)N1CCS(=O)(=O)CC1)C(=O)Nc1ccc(C(=O)O)cc1` gave an inhibition (Coagulation factor XI [1]) of 2.6%.

In the case of `O=C(/C=C/c1cc(Cl)ccc1-n1cnnn1)N[C@@H](CC(=O)N1CCC(O)CC1)C(=O)Nc1ccc(C(=O)O)cc1`, the inhibition (Coagulation factor XI [1]) is reported as 12.3%.

`O=C(/C=C/c1cc(Cl)ccc1-n1cnnn1)N[C@@H](CCC(=O)N1CCN(Cc2cccc(Cl)c2)CC1)C(=O)Nc1ccc(C(=O)O)cc1` gave an inhibition (Coagulation factor XI [1]) of 3.8%.

With `Cc1ccc(CN(CC(=O)Nc2ccc(C(=O)O)cc2)C(=O)/C=C/c2cc(Cl)ccc2-n2cnnn2)cc1` the inhibition (Coagulation factor XI [1]) was under 5%.

In the case of `CCCCN1CCN(C(=O)C[C@H](NC(=O)/C=C/c2cc(Cl)ccc2-n2cnnn2)C(=O)Nc2ccc(C(=O)O)cc2)CC1`, the IC50 (Plasma kallikrein) is reported as 0.51 µM, the IC50 (Coagulation factor XI [2]) is reported as 0.0077 µM and the inhibition (Coagulation factor XI [1]) is reported as 51.5%.

For `CC1CCN(C(=O)CC[C@H](NC(=O)/C=C/c2cc(Cl)ccc2-n2cnnn2)C(=O)Nc2ccc(C(=O)O)cc2)CC1`, the inhibition (Coagulation factor XI [1]) was 3.1%.

In the case of `CC(C)N1CCN(C(=O)CC[C@H](NC(=O)/C=C/c2cc(Cl)ccc2-n2cnnn2)C(=O)Nc2ccc(C(=O)O)cc2)CC1`, the IC50 (Coagulation factor XI [2]) is reported as 0.0735 µM and the inhibition (Coagulation factor XI [1]) is reported as 20.9%.

With `O=C(O)CC[C@H](NC(=O)/C=C/c1cc(Cl)ccc1-n1cnnn1)C(=O)Nc1ccc(C(=O)O)cc1` the inhibition (Coagulation factor XI [1]) was 6.6%.

For `O=C(/C=C/c1cc(Cl)ccc1-n1cnnn1)N[C@@H](CC(=O)N1CCN(Cc2ccccc2)CC1)C(=O)Nc1ccc(C(=O)O)cc1`, the Ratio IC50 (Homo sapiens) was 35, the IC50 (Plasma kallikrein) was 1.06 µM and the IC50 (Coagulation factor XI [2]) was 0.0302 µM. The inhibition (Coagulation factor XI [1]) was 53.3%.

`Cc1ccc(CN2CCN(C(=O)C[C@H](NC(=O)/C=C/c3cc(Cl)ccc3-n3cnnn3)C(=O)Nc3ccc(C(=O)O)cc3)CC2)cc1` showed a Ratio IC50 (Homo sapiens) of 45, an IC50 (Plasma kallikrein) of 1.2 µM and an IC50 (Coagulation factor XI [2]) of 0.0265 µM. For the same molecule, the inhibition (Coagulation factor XI [1]) was 43.5%.

Molecule `COc1ccc(CN(CC(=O)Nc2ccc(C(=O)O)cc2)C(=O)/C=C/c2cc(Cl)ccc2-n2cnnn2)cc1` has an inhibition (Coagulation factor XI [1]) of 8.9%.

`Cc1ccc(CN2CCN(C(=O)CC[C@H](NC(=O)/C=C/c3cc(Cl)ccc3-n3cnnn3)C(=O)Nc3ccc(C(=O)O)cc3)CC2)cc1` gave an inhibition (Coagulation factor XI [1]) of 19.4%.

`CN1CCN(C(=O)C[C@H](NC(=O)/C=C/c2cc(Cl)ccc2-n2cnnn2)C(=O)Nc2ccc(C(=O)O)cc2)CC1` showed an inhibition (Coagulation factor XI [1]) of 17.2%.

In the case of `O=C(O)C[C@H](NC(=O)/C=C/c1cc(Cl)ccc1-n1cnnn1)C(=O)Nc1ccc(C(=O)O)cc1`, the inhibition (Coagulation factor XI [1]) is reported as 2.1%.

`O=C(CN(Cc1ccccc1)C(=O)/C=C/c1cc(Cl)ccc1-n1cnnn1)Nc1ccc(C(=O)O)cc1` gave an inhibition (Coagulation factor XI [1]) of 15.3%.

Work on `CN1CCN(C(=O)CC[C@H](NC(=O)/C=C/c2cc(Cl)ccc2-n2cnnn2)C(=O)Nc2ccc(C(=O)O)cc2)CC1` yielded an IC50 (Coagulation factor XI [2]) of 0.737 µM and an inhibition (Coagulation factor XI [1]) of 20.5%.

With `COc1ccc(CN(CC(=O)Nc2ccc(C(=O)O)cc2)C(=O)/C=C/c2cccc(Cl)c2)cc1` the inhibition (Coagulation factor XI [1]) was under 5%.

Work on `CN(C)C1CCN(C(=O)CC[C@H](NC(=O)/C=C/c2cc(Cl)ccc2-n2cnnn2)C(=O)Nc2ccc(C(=O)O)cc2)CC1` yielded an inhibition (Coagulation factor XI [1]) of 7.5%.

Molecule `O=C(/C=C/c1cc(Cl)ccc1-n1cnnn1)N[C@@H](CCC(=O)N1CCC(O)CC1)C(=O)Nc1ccc(C(=O)O)cc1` has an inhibition (Coagulation factor XI [1]) of 20.9%.

In the case of `CCN1CCN(C(=O)C[C@H](NC(=O)/C=C/c2cc(Cl)ccc2-n2cnnn2)C(=O)Nc2ccc(C(=O)O)cc2)CC1`, the Ratio IC50 (Homo sapiens) is reported as 106, the IC50 (Plasma kallikrein) is reported as 2.7 µM and the IC50 (Coagulation factor XI [2]) is reported as 0.0255 µM. It also gave an inhibition (Coagulation factor XI [1]) of 45.5%.

With `O=C(/C=C/c1cc(Cl)ccc1-n1cnnn1)N[C@@H](CC(=O)N1CCCCC1)C(=O)Nc1ccc(C(=O)O)cc1` the inhibition (Coagulation factor XI [1]) was 15.9%.

For `O=C(/C=C/c1cc(Cl)ccc1-n1cnnn1)N[C@@H](CCC(=O)N1CCN(CC2CC2)CC1)C(=O)Nc1ccc(C(=O)O)cc1`, the Ratio IC50 (Homo sapiens) was 42, the IC50 (Plasma kallikrein) was 3.1 µM and the inhibition (Coagulation factor XI [1]) was 41.7%.

For `O=C(/C=C/c1cc(Cl)ccc1-n1cnnn1)N[C@@H](Cc1ccccc1)C(=O)Nc1ccc(C(=O)O)cc1`, the Activity [3] was “Non-Toxic”, the Activity [4] was “Toxic” and the Activity [5] was “Non-Toxic”.

With `O=C(/C=C/c1cc(Cl)ccc1-n1cnnn1)N[C@@H](CCC(=O)N1CCSCC1)C(=O)Nc1ccc(C(=O)O)cc1` the Ratio IC50 (Homo sapiens) was 50, the IC50 (Plasma kallikrein) was 6.7 µM and the IC50 (Coagulation factor XI [2]) was 0.132 µM. It also gave an inhibition (Coagulation factor XI [1]) of 21.9%.
